“And” between values parts separate entries of the source, which are not always exact repeats. Identical values can stand only once. After the bases stand the sugars from the 5' end (letter, count) and the backbone: PS all phosphorothioate, else s phosphorothioate and o phosphodiester by linkage. Methylation of C is not given here. e = 2'-O-(2-methoxyethyl) (MOE); l = locked nucleic acid (LNA); k = constrained ethyl (cEt); d = 2'-deoxy (DNA)

One data set has as its target YAP1. The settings on record: ASO, SNU-449, 2 µM.
As for “ATTAGAGTATGTGGCA (sugars kkdddddddddkekek, PS)”, the target mRNA inhibition is 57%.
As for “ATTTAGGATGCATGGT (sugars kekdddddddddeekk, PS)”, the target mRNA inhibition stood at 70%.
In the case of “ATTCAGATTTAGGATG (sugars kkdddddddddkdkdk, PS)”, the target mRNA inhibition was -2%.
On to CTAAGTAAGGTTTCCC (sugars k3 d10 k3, PS), for which the target mRNA inhibition was determined as 83%.

A further data set concerns the target HTRA1. Particulars: ASO, U251, 5 µM.
In the case of “GCAATGTGTAAGAAGTACTT (sugars l2 d14 l4, PS)”, the target mRNA inhibition was 49%.
Same read-out and setting: the figure for TATCTACGCATTGTAT (sugars l4 d8 l4, PS) is 88%; for “ATTGTATCGACTGCATTA (sugars l4 d11 l3, PS)” it is 82%; for “TCTACGCATTGTATCGAC (sugars l4 d12 l2, PS)” it is 74%.
Consider TCTACGCATTGTATCG (sugars l3 d10 l3, PS), for which the target mRNA inhibition was 97%.
The same measure, in the same setting: for “TTCTATCTACGCATTGTATC (sugars l3 d15 l2, PS)” the value was 64%; for GTATCGACTGCATTAG (sugars l3 d11 l2, PS), 99.6% and 97%; for “AATGTGTAAGAAGTACTT (sugars l4 d10 l4, PS)”, 68%.
For the sequence CAATGTGTAAGAAGTA (sugars l3 d9 l4, PS), the target mRNA inhibition was 73%.
As to “CTACGCATTGTATCGAC (sugars l2 d11 l4, PS)”, the target mRNA inhibition worked out at 74%.
